Common to all, as to type: cell-based
One assay relates to Botrytis cinerea. The experiment in a line: Fungicidal activity screen in amended agar, 96 well plates, Botrytis cinerea. Particulars: Medium N agar, 5,000 spores/ml, 20, 2, 0.2 and 0.02 ppm, room temperature (18° C.), assessed after 3 to 4 days, read-out: Botrytis (fungal growth vs DMSO controls, EC50 ranking). On the procedure:
(§1) Compounds were screened in 96 well plates with 10 compounds per plate. Each compound was screened using agar amended to 20, 2, 0.2 and 0.02 ppm of the test material. Proline at 50 and 10 ppm and 0.2% DMSO were used respectively as positive and negative controls. Each test concentration and standard were tested twice on a plate.
(§2) Compounds were screened against the following three fungal pathogens—Botrytis cinerea, Alternaria alternata and Zymoseptoria tritici. The agar used in the test varied depending on the pathogen with Medium N used for B. cinerea and A. alternata and 1% potato dextrose agar for Z. tritici. For each pathogen sufficient spores were added to the appropriate agar to give 1,000 spores/mL agar of A. alternata, 5,000 spores/ml agar of B. cinerea and 10,000 spores/mL agar of Z. tritici.
(§3) A ×10 stock solution in 2% DMSO was produced for each dose i.e. 200, 20, 2 and 0.2 ppm, and 10 μl of this added to the appropriate wells on the plate. An equivalent amount of 2% DMSO and Proline stock at 500 and 100 ppm were added for the controls. To each well, 90 μl of the appropriate agar spore suspension was added to give the final well concentrations outlined in the first paragraph.
(§4) Plates were incubated at room temperature (18° C.) and assessed after: • a) 3 to 4 days A. alternata and B. cinerea • b) 7 days for Z. tritici
(§5) The amount of fungal growth in each well was compared to the DMSO controls and scored according to the following key: • A—EC50<2 ppm • B—2≤EC50<20 • C—EC50≥20 • D—No activity detected at the highest dose tested • NT—Not tested

In the next assay the test system is Alternaria alternata. The experiment in a line: Fungicidal activity screen in amended agar, 96 well plates, Alternaria alternata. Particulars: Medium N agar, 1,000 spores/mL, 20, 2, 0.2 and 0.02 ppm, room temperature (18° C.), assessed after 3 to 4 days, read-out: Alternaria (fungal growth vs DMSO controls, EC50 ranking). The procedure:
as §1, §2, §3, §4, §5

For another assay, the system named is Zymoseptoria tritici. Put plainly: Fungicidal activity screen in amended agar, 96 well plates, Zymoseptoria tritici. The conditions noted are these: Zymoseptoria tritici, 168 h; 1% potato dextrose agar, 10,000 spores/mL, 20, 2, 0.2 and 0.02 ppm, room temperature (18° C.), assessed after 7 days; read-out: Zymoseptoria (fungal growth vs DMSO controls, EC50 ranking). The procedure: as §1, §2, §3, §4, §5

≈ marks a conversion by molar mass, not a printed value. Some results are limits rather than exact numbers.

The term EC50 denotes the concentration at which the effect is half-maximal. Take `COc1ccnc2c(=O)n(-c3nc4ccc(Oc5ccc(F)cc5Cl)cc4s3)c(=S)oc12` [Example 6, 3-(6-(2-Chloro-4-fluorophenoxy)benzo[d]thiazol-2-yl)-8-methoxy-2-thioxo-2,3-dihydro-4H-pyrido[2,3-e][1,3]oxazin-4-one]: the values for the EC50 in the assay with Botrytis cinerea, in the assay on Alternaria alternata and in the assay on Zymoseptoria tritici were 2 to 20 µg/mL (≈ 4.1 to 41 µM), 2 to 20 µg/mL (≈ 4.1 to 41 µM) and less than 2 µg/mL, respectively.

For `COc1ccnc2c(=O)n(-c3nc4ccc(Oc5cncc(Cl)c5)cc4s3)c(=S)oc12` [Example 7, 3-(6-((5-Chloropyridin-3-yl)oxy)benzo[d]thiazol-2-yl)-8-methoxy-2-thioxo-2,3-dihydro-4H-pyrido[2,3-e][1,3]oxazin-4-one], the EC50 in the assay with Botrytis cinerea was 2 to 20 µg/mL (≈ 4.25 to 42.5 µM); in the assay on Alternaria alternata, 2 to 20 µg/mL (≈ 4.25 to 42.5 µM); with Zymoseptoria tritici, less than 2 µg/mL.

`COc1ccnc2c(=O)n(-c3nc4ccc(Oc5cncc(C(F)(F)F)c5)cc4s3)c(=S)oc12` [Example 8, 8-Methoxy-2-thioxo-3-(6-((5-(trifluoromethyl)pyridin-3-yl)oxy)benzo[d]thiazol-2-yl)-2,3-dihydro-4H-pyrido[2,3-e][1,3]oxazin-4-one]: the EC50 is 2 to 20 µg/mL (≈ 3.96 to 39.6 µM) with Botrytis cinerea, 2 to 20 µg/mL (≈ 3.96 to 39.6 µM) with Alternaria alternata and less than 2 µg/mL in the assay with Zymoseptoria tritici.

In the case of `COc1ccnc2c(=O)n(-c3nc4ccc(Oc5cccc(Cl)c5)cc4s3)c(=S)oc12` [Example 9, 3-(6-(3-Chlorophenoxy)benzo[d]thiazol-2-yl)-8-methoxy-2-thioxo-2,3-dihydro-4H-pyrido[2,3-e][1,3]oxazin-4-one], the values for the EC50 in the assay on Botrytis cinerea, in the assay on Alternaria alternata and with Zymoseptoria tritici were 2 to 20 µg/mL (≈ 4.26 to 42.6 µM), 2 to 20 µg/mL (≈ 4.26 to 42.6 µM) and less than 2 µg/mL, respectively.

As to `COc1ccnc2c(=O)n(-c3nc4ccc(Oc5ccc(F)cc5)cc4s3)c(=S)oc12` [Example 10, 3-(6-(4-Fluorophenoxy)benzo[d]thiazol-2-yl)-8-methoxy-2-thioxo-2,3-dihydro-4H-pyrido[2,3-e][1,3]oxazin-4-one], the EC50 in the assay with Botrytis cinerea was 2 to 20 µg/mL (≈ 4.41 to 44.1 µM); with Alternaria alternata, less than 2 µg/mL; in the assay on Zymoseptoria tritici, less than 2 µg/mL.

As to `COc1ccnc2c(=O)n(-c3nc4ccc(Oc5cccc(F)c5)cc4s3)c(=S)oc12` [Example 11, 3-(6-(3-Fluorophenoxy)benzo[d]thiazol-2-yl)-8-methoxy-2-thioxo-2,3-dihydro-4H-pyrido[2,3-e][1,3]oxazin-4-one], the EC50 in the assay on Botrytis cinerea, in the assay on Alternaria alternata and in the assay with Zymoseptoria tritici was 2 to 20 µg/mL (≈ 4.41 to 44.1 µM) throughout.

For the compound `COc1ccnc2c(=O)n(-c3nc4ccc(Oc5ccccc5)cc4s3)c(=S)oc12` [Example 17, 8-Methoxy-3-(6-phenoxybenzo[d]thiazol-2-yl)-2-thioxo-2,3-dihydro-4H-pyrido[2,3-e][1,3]oxazin-4-one], the figures for the EC50 with Botrytis cinerea, in the assay on Alternaria alternata and in the assay on Zymoseptoria tritici were 2 to 20 µg/mL (≈ 4.59 to 45.9 µM), 2 to 20 µg/mL (≈ 4.59 to 45.9 µM) and less than 2 µg/mL, respectively.

Turning to `COc1ccnc2c(=O)n(-c3nc4ccc(Oc5ccccc5C(F)(F)F)cc4s3)c(=S)oc12` [Example 20, 8-Methoxy-2-thioxo-3-(6-(2-(trifluoromethyl)phenoxy)benzo[d]thiazol-2-yl)-2,3-dihydro-4H-pyrido[2,3-e][1,3]oxazin-4-one], the values for the EC50 in the assay on Botrytis cinerea, in the assay on Alternaria alternata and in the assay with Zymoseptoria tritici were 2 to 20 µg/mL (≈ 3.97 to 39.7 µM), 2 to 20 µg/mL (≈ 3.97 to 39.7 µM) and less than 2 µg/mL, respectively.

For the compound `COc1ccnc2c(=O)n(-c3nc4ccc(Oc5cc(F)cc(F)c5)cc4s3)c(=S)oc12` [Example 21, 3-(6-(3,5-Difluorophenoxy)benzo[d]thiazol-2-yl)-8-methoxy-2-thioxo-2,3-dihydro-4H-pyrido[2,3-e][1,3]oxazin-4-one], the EC50 in the assay with Botrytis cinerea is 2 to 20 µg/mL (≈ 4.24 to 42.4 µM); in the assay on Alternaria alternata, 2 to 20 µg/mL (≈ 4.24 to 42.4 µM); with Zymoseptoria tritici, less than 2 µg/mL.

In the case of `COc1ccnc2c(=O)n(-c3nc4ccc(OC5CCCCC5)cc4s3)c(=S)oc12` [Example 22, 3-(6-(Cyclohexyloxy)benzo[d]thiazol-2-yl)-8-methoxy-2-thioxo-2,3-dihydro-4H-pyrido[2,3-e][1,3]oxazin-4-one], the EC50 in the assay on Botrytis cinerea is 2 to 20 µg/mL (≈ 4.53 to 45.3 µM); with Alternaria alternata, not below 20 µg/mL; in the assay on Zymoseptoria tritici, 2 to 20 µg/mL (≈ 4.53 to 45.3 µM).

For the compound `COc1ccnc2c(=O)n(-c3nc4ccc(OC5CCCC5)cc4s3)c(=S)oc12` [Example 23, 3-(6-(Cyclopentyloxy)benzo[d]thiazol-2-yl)-8-methoxy-2-thioxo-2,3-dihydro-4H-pyrido[2,3-e][1,3]oxazin-4-one], the figures for the EC50 in the assay with Botrytis cinerea, in the assay on Alternaria alternata and in the assay with Zymoseptoria tritici were 2 to 20 µg/mL (≈ 4.68 to 46.8 µM), not below 20 µg/mL and less than 2 µg/mL, respectively.

As for `COc1ccnc2c(=O)n(-c3nc4ccc(Sc5ccccc5)cc4s3)c(=S)oc12` [Example 27, 8-Methoxy-3-(6-(phenylthio)benzo[d]thiazol-2-yl)-2-thioxo-2,3-dihydro-4H-pyrido[2,3-e][1,3]oxazin-4-one], the EC50 is not below 20 µg/mL in the assay with Botrytis cinerea, 2 to 20 µg/mL (≈ 4.43 to 44.3 µM) in the assay on Alternaria alternata and less than 2 µg/mL with Zymoseptoria tritici.

For the compound `COc1ccnc2c(=O)n(-c3nc4ccc(Cc5ccc(F)cc5Cl)cc4s3)c(=S)oc12` [Example 28, 3-(6-(2-Chloro-4-fluorobenzyl)benzo[d]thiazol-2-yl)-8-methoxy-2-thioxo-2,3-dihydro-4H-pyrido[2,3-e][1,3]oxazin-4-one], the EC50 in the assay on Botrytis cinerea was 2 to 20 µg/mL (≈ 4.12 to 41.2 µM); in the assay on Alternaria alternata it was 2 to 20 µg/mL (≈ 4.12 to 41.2 µM); in the assay with Zymoseptoria tritici it was less than 2 µg/mL.

As to `COc1ccnc2c(=O)n(-c3nc4ccc(Cc5ccccc5Cl)cc4s3)c(=S)oc12` [Example 29, 3-(6-(2-Chlorobenzyl)benzo[d]thiazol-2-yl)-8-methoxy-2-thioxo-2,3-dihydro-4H-pyrido[2,3-e][1,3]oxazin-4-one], the concentration for a half-maximal effect (EC50) with Botrytis cinerea is not below 20 µg/mL; in the assay on Alternaria alternata, not below 20 µg/mL; in the assay on Zymoseptoria tritici, less than 2 µg/mL.

Take `COc1ccnc2c(=O)n(-c3nc4ccc(Oc5cccnc5Cl)cc4s3)c(=S)oc12` [Example 36, 3-(6-((2-chloropyridin-3-yl)oxy)benzo[d]thiazol-2-yl)-8-methoxy-2-thioxo-2,3-dihydro-4H-pyrido[2,3-e][1,3]oxazin-4-one]: the EC50 was not below 20 µg/mL with Botrytis cinerea, not below 20 µg/mL in the assay on Alternaria alternata and less than 2 µg/mL in the assay on Zymoseptoria tritici.

In the case of `COc1ccnc2c(=O)n(-c3nc4ccc(Sc5ccccc5Cl)nc4s3)c(=S)oc12` [Example 38, 3-(5-((2-chlorophenyl)thio)thiazolo [5,4-b]pyridin-2-yl)-8-methoxy-2-thioxo-2,3-dihydro-4H-pyrido[2,3-e][1,3]oxazin-4-one], the EC50 was not below 20 µg/mL in the assay with Botrytis cinerea, not below 20 µg/mL in the assay with Alternaria alternata and less than 2 µg/mL in the assay on Zymoseptoria tritici.

`COc1ccnc2c(=O)n(-c3nc4ccc(Oc5ccccc5OC(F)(F)F)cc4s3)c(=S)oc12` [Example 39, 8-methoxy-2-thioxo-3-(6-(2-(trifluoromethoxy)phenoxy)benzo[d]thiazol-2-yl)-2,3-dihydro-4H-pyrido[2,3-e][1,3]oxazin-4-one]: the results for the EC50 with Botrytis cinerea, in the assay with Alternaria alternata and in the assay with Zymoseptoria tritici were not below 20 µg/mL, not below 20 µg/mL and less than 2 µg/mL, respectively.

On to `COc1ccnc2c(=O)n(-c3nc4ccc(Oc5ccccc5Cl)nc4s3)c(=S)oc12` [Example 40, 3-(5-(2-chlorophenoxy)thiazolo[5,4-b]pyridin-2-yl)-8-methoxy-2-thioxo-2,3-dihydro-4H-pyrido[2,3-e][1,3] oxazin-4-one], for which the EC50 with Botrytis cinerea was not below 20 µg/mL; in the assay with Alternaria alternata, not below 20 µg/mL; in the assay with Zymoseptoria tritici it was less than 2 µg/mL.

Turning to `COc1ccnc2c(=O)n(-c3nc4ccc(Oc5cccnc5Cl)nc4s3)c(=S)oc12` [Example 41, 3-(5-((2-chloropyridin-3-yl)oxy)thiazolo[5,4-b]pyridin-2-yl)-8-methoxy-2-thioxo-2,3-dihydro-4H-pyrido[2,3-e][1,3]oxazin-4-one], the EC50 in the assay on Botrytis cinerea, in the assay on Alternaria alternata and in the assay on Zymoseptoria tritici was not below 20 µg/mL throughout.

The record behind these values is patent US12415815B2, “Pyrido[2,3-e]oxazine derivatives as agricultural chemicals” (GLOBACHEM NV, priority 2020, dated 2025).
